From PubChem BioAssay (NCI) come the findings set out here.

Molecules are shown by their SMILES.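 Values below derive from 48-hour exposures of cells grown in 96-well plates, with endpoints linearly interpolated between the two concentrations bracketing the appropriate inhibition level. At the GI50, growth is halved. TGI denotes the concentration required for complete inhibition of growth.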

What all share (experiment): NCI-60 cell line screen, 48 h
For assay [1], the system named is OVCAR-8 ovarian.
In assay [2] the test system is SK-MEL-2 melanoma.
Assay [3] deals with RPMI-8226 leukemia.
Assay [4] deals with SF-295 CNS.
Assay [5] has as its system UACC-257 melanoma.
Assay [6] has as its system UACC-62 melanoma.
Assay [7] deals with PC-3 prostate.
Assay [8] relates to COLO 205 colon.
The subject of assay [9] is K-562 leukemia.
In assay [10] the test system is UO-31 renal.

For the compound `CCN(CC)CCNc1ccc2ncn3c4ccc(O)cc4c(=O)c1c23`, the TGI is 9.55 µM in [1]; 21.4 µM in assay [2]; 11.1 µM in [3]; 15.1 µM in [4]; 21.2 µM in assay [5]; 11.8 µM in [6]. Further, the TGI in assay [7] amounted to 14.5 µM; in assay [8] it was 14.7 µM; in [9] it was 34.4 µM; in assay [10] it was 6.94 µM.
Consider `CSCCC(C(=O)O)N(C)C` (stereo not drawn), for which the TGI in [1], in [2], in assay [3], in assay [4], in [5] and in assay [6] was above 100 µM each time. In addition, the TGI in [7], in [8], in assay [9] and in assay [10] was above 100 µM in each case.
Take `C=C(C#N)C(=O)OCC(CC)CC.C=C(C#N)C(=O)OCC(CC)CC.CS(C)=O.CS(C)=O.Nc1c(N=Nc2ccc(-c3ccc(N=Nc4cc(S(=O)(=O)[O-])c5ccccc5c4N)cc3)cc2)cc(S(=O)(=O)[O-])c2ccccc12.[Pt+2]`: the GI50 in assay [1] is 19.2 µM; in assay [2] it was 21.2 µM; in [3] it was 26.9 µM; in assay [4] it was 98.4 µM; in assay [5], 17.4 µM; in assay [6] it was 36.8 µM. In addition, the GI50 in assay [8] is 22.3 µM; in assay [9], 32.6 µM; in assay [10], above 100 µM. For the same compound, the TGI in assay [1] was 42.3 µM; in assay [2], 50.4 µM; in assay [3] it was above 80.8 µM; in assay [4] it was above 100 µM; in [5], 31.8 µM; in assay [6] it was 97.4 µM. Moreover, the results for the TGI in assay [8], in assay [9] and in [10] were 45.6 µM, above 100 µM and above 100 µM, respectively.
For `O=C1c2cc(O)c(O)cc2O[C@H](c2ccc(O)c(O)c2)[C@H]1O`, the TGI in [1], in assay [2], in assay [3], in [4], in assay [5] and in [6] was above 100 µM in each case. Also, the TGI in [7], in assay [8], in assay [9] and in assay [10] was above 100 µM in each case.
For the compound `CN1C(=O)CC(=O)N1/C(=C/c1ccccc1)c1ccccc1`, the TGI in [1], in [2], in assay [3], in assay [4], in assay [5] and in [6] was above 100 µM each time. For the same compound, the TGI in assay [7] is above 100 µM; in [8], above 100 µM; in [9], above 100 µM; in assay [10] it was 32 µM.
`O=C1c2cc3c(cc2-c2c1c1ccc(Cl)cc1c(=O)n2C[C@H](O)CO)OCO3`: the GI50 in assay [1] was 0.0521 µM; in assay [2], 0.284 µM; in [3] it was 0.0429 µM; in [4], below 0.01 µM; in assay [5], 0.13 µM; in assay [6], 0.0122 µM. Further, the figures for the GI50 in assay [8], in [9] and in assay [10] were 0.0954 µM, 0.0457 µM and 0.0348 µM, respectively. Moreover, the TGI in [1] was 2.98 µM; in assay [2], 1.11 µM; in assay [3], 0.54 µM; in [4], 0.341 µM; in assay [5] it was 0.604 µM; in assay [6], 0.122 µM. For the same compound, the figures for the TGI in assay [8], in [9] and in assay [10] were 10.1 µM, above 100 µM and 0.19 µM, respectively.
For `O=c1[nH]c2[nH]c(=S)[nH]c(=S)c2[nH]1`, the TGI in [1], in assay [2], in assay [3], in [4], in [5] and in assay [6] was above 100 µM in each case. Further, the TGI in [7], in assay [9] and in assay [10] was above 100 µM each time.
Turning to `C=CCNC(=O)C(C)C1CCC2(C)C=CC(=O)C(C)=C2C1O` (stereo not drawn), the TGI in assay [1], in assay [2], in [3], in assay [4], in [5] and in assay [6] was above 100 µM throughout. Further, the TGI in assay [8], in assay [9] and in assay [10] was above 100 µM throughout.
For `COc1ccc2nc3cc(Cl)ccc3c(NC(C)CCCN(CCCl)CCCl)c2c1` (stereo not drawn), the TGI amounted to 4.32 µM in [1]; 4.54 µM in [2]; 2.93 µM in assay [3]; 10.6 µM in assay [4]; 14.9 µM in assay [5]; 2.41 µM in [6]. The TGI in assay [8] came out at 2.15 µM; in assay [9], 2.3 µM; in [10], 11 µM.
Consider `Oc1ccc(C(=C(Br)c2ccccc2)c2ccc(O)cc2)cc1`, for which the TGI in assay [1] came to 22.2 µM; in assay [2], 18.3 µM; in assay [3], 96.1 µM; in [4] it was 25.6 µM; in assay [5], 25.2 µM; in assay [6] it was 23.1 µM. Further, the results for the TGI in assay [7], in assay [9] and in assay [10] were 19.9 µM, 9.07 µM and 19.7 µM, respectively.
Turning to `O=C1c2ccccc2C(=O)c2[nH]cnc21`, the TGI was above 100 µM in assay [1]; above 100 µM in assay [2]; above 100 µM in assay [4]; 54.2 µM in assay [5]; 82.2 µM in assay [6]; above 100 µM in assay [9]. Also, the TGI in assay [10] was above 100 µM.
For the compound `O=C1C(Cl)N(c2ccccc2Cl)C1c1c[nH]c2ccccc12` (stereo not drawn), the TGI in assay [1], in assay [2], in [3], in assay [4], in [5] and in assay [6] was above 100 µM in each case. Also, the TGI in assay [8], in assay [9] and in [10] was above 100 µM each time.
